Measurements taken from patent US9833497B2, “Human originated EGF domain proteins and use of the same” (CHENGDU SOURCEBIO LIMITED-LIABILITY COMPANY, priority 2013, dated 2017).

Legend:
Assay type in all cases: cell-based
[1] = test system: E. coli DH5α; test: Antibacterial activity: MIC and growth curve against E. coli DH5α in 96-well plate; conditions: minimal inhibitory concentration against E. coli DH5α; 96-well plate, 5×10^5 CFU/mL, 37° C., judged after 8 h
Method in brief: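 Log-phase DH5α (OD600 about 0.5, 37° C, 185 rpm in LB) was pelleted, resuspended in fresh LB and seeded at 5×10^5 CFU/mL with recombinant protein at 50, 25 and 12.5 μg/mL (two-fold series), in triplicate. Plates were shaken at 175 rpm, 37° C, and OD600 was read every 30 min. MIC was the lowest concentration with no growth.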

[2] = test system: Proteus mirabilis; test: MIC against Gram-negative bacteria: Proteus mirabilis; conditions: 5×10^5 CFU/mL; for MIC (μg/mL) P. mirabilis: 96-well plate, 37° C., 10 h; for MIC P. mirabilis: two-fold serial dilution
Method in brief: (§1)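 Bacteria grown in LB at 37° C with shaking to McFarland 0.5, pelleted and resuspended in fresh LB, then seeded at 5×10^5 CFU/mL per well. Purified recombinant human EGF domain proteins were two-fold serially diluted in triplicate and plates shaken at 37° C, 175 rpm. MIC is the lowest protein concentration with no bacterial growth.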

[3] = test system: Enterobacter cloacae; test: MIC against Gram-negative bacteria: Enterobacter cloacae; conditions: 5×10^5 CFU/mL; for MIC (μg/mL) E. cloacae: 96-well plate, 37° C., 10 h; for MIC E. cloacae: two-fold serial dilution
Method in brief: as §1

[4] = test system: Citrobacter diversus; test: MIC against Gram-negative bacteria: Citrobacter diversus; conditions: 5×10^5 CFU/mL; for MIC (μg/mL) C. diversus: 96-well plate, 37° C., 10 h; for MIC C. diversus: two-fold serial dilution
Method in brief: as §1

[5] = test system: E. coli BL21; test: MIC against Gram-negative bacteria: E. coli BL21; conditions: 5×10^5 CFU/mL; for MIC (μg/mL) E. coli BL21: 96-well plate, 37° C., 10 h; for MIC E. coli BL21: two-fold serial dilution
Method in brief: as §1

[6] = test system: Proteus vulgaris; test: MIC against Gram-negative bacteria: Proteus vulgaris; conditions: 5×10^5 CFU/mL; for MIC (μg/mL) P. vulgaris: 96-well plate, 37° C., 10 h; for MIC P. vulgaris: two-fold serial dilution
Method in brief: as §1

[7] = test system: Moraxella catarrhalis; test: MIC against Gram-negative bacteria: Moraxella catarrhalis; conditions: 5×10^5 CFU/mL; for MIC (μg/mL) M. catarrhalis: 96-well plate, 37° C., 10 h; for MIC M. catarrhalis: two-fold serial dilution
Method in brief: as §1

[8] = test system: Serratia marcescens; test: MIC against Gram-negative bacteria: Serratia marcescens; conditions: 5×10^5 CFU/mL; for MIC (μg/mL) S. marcescens: 96-well plate, 37° C., 10 h; for MIC S. marcescens: two-fold serial dilution
Method in brief: as §1

[9] = test system: Klebsiella pneumonia; test: MIC against Gram-negative bacteria: Klebsiella pneumonia; conditions: 5×10^5 CFU/mL; for MIC (μg/mL) K. pneumonia: 96-well plate, 37° C., 10 h; for MIC K. pneumonia: two-fold serial dilution
Method in brief: as §1

[10] = test system: Aeromonas hydrophila; test: MIC against Gram-negative bacteria: Aeromonas hydrophila; conditions: 5×10^5 CFU/mL; for MIC (μg/mL) A. hydrophila: 96-well plate, 37° C., 10 h; for MIC A. hydrophila: two-fold serial dilution
Method in brief: as §1

[11] = test system: Pseudomonas aeruginosa; test: MIC against Gram-negative bacteria: Pseudomonas aeruginosa; conditions: 5×10^5 CFU/mL; for MIC (μg/mL) P. aeruginosa: 96-well plate, 37° C., 10 h; for MIC P. aeruginosa: two-fold serial dilution
Method in brief: as §1

[12] = E. coli BL21, 10 h cultivation at 37° C.

| Substance | MIC [1] | MIC (μg/mL) P. mirabilis ([2]; Proteus mirabilis) | MIC (μg/mL) E. cloacae ([3]; Enterobacter cloacae) | MIC (μg/mL) C. diversus ([4]; Citrobacter diversus) | MIC (μg/mL) E. coli BL21 ([5]; E. coli BL21) | MIC (μg/mL) P. vulgaris ([6]; Proteus vulgaris) | MIC (μg/mL) M. catarrhalis ([7]; Moraxella catarrhalis) | MIC (μg/mL) S. marcescens ([8]; Serratia marcescens) | MIC (μg/mL) K. pneumonia ([9]; Klebsiella pneumonia) | MIC (μg/mL) A. hydrophila ([10]; Aeromonas hydrophila) | MIC (μg/mL) P. aeruginosa ([11]; Pseudomonas aeruginosa) | MIC P. mirabilis ([2]; 10 h cultivation at 37° C.) | MIC E. cloacae ([3]; 10 h cultivation at 37° C.) | MIC C. diversus ([4]; 10 h cultivation at 37° C.) | MIC E. coli BL21 ([5]; 10 h cultivation at 37° C.) | MIC P. vulgaris ([6]; 10 h cultivation at 37° C.) | MIC M. catarrhalis ([7]; 10 h cultivation at 37° C.) | MIC S. marcescens ([8]; 10 h cultivation at 37° C.) | MIC K. pneumonia ([9]; 10 h cultivation at 37° C.) | MIC A. hydrophila ([10]; 10 h cultivation at 37° C.) | also measured |
| --- | --- | --- | --- | --- | --- | --- | --- | --- | --- | --- | --- | --- | --- | --- | --- | --- | --- | --- | --- | --- | --- |
| PRT422 (DVDECALGTHNCSEAETCHNIQGSFRCLRFECPPNYVQVSKTKCE; listed as Homo sapiens) | 12.5 µg/mL | – | – | – | – | – | – | – | – | – | – | – | – | – | – | – | – | – | – | – | MIC ([2]; P. mirabilis, 10 h cultivation at 37° C.): 25 µg/mL; MIC ([3]; E. cloacae, 10 h cultivation at 37° C.): 12.5 µg/mL; MIC ([4]; C. diversus, 10 h cultivation at 37° C.): 12.5 µg/mL; MIC [5, 12]: 25 µg/mL; MIC ([6]; P. vulgaris, 10 h cultivation at 37° C.): 12.5 µg/mL; MIC ([7]; M. catarrhalis, 10 h cultivation at 37° C.): 12.5 µg/mL; MIC ([8]; S. marcescens, 10 h cultivation at 37° C.): 25 µg/mL; MIC ([9]; K. pneumonia, 10 h cultivation at 37° C.): 25 µg/mL; MIC ([10]; A. hydrophila, 10 h cultivation at 37° C.): 25 µg/mL; MIC ([11]; P. aeruginosa, 10 h cultivation at 37° C.): 12.5 µg/mL |
| PRT86 (VTNACASGPCPPHADCRDLWQTFSCTCQPGYYGPGCV; listed as Homo sapiens) | 50 µg/mL | 25 µg/mL | 25 µg/mL | 25 µg/mL | 12.5 µg/mL | 12.5 µg/mL | 12.5 µg/mL | 12.5 µg/mL | 12.5 µg/mL | 12.5 µg/mL | 25 µg/mL | – | – | – | – | – | – | – | – | – | – |
| PRT98 (DINECATPSKVSCGKFSDCWNTEGSYDCVCSPGYEPVSGAKTFKNESENTCQ; listed as Homo sapiens) | 12.5 µg/mL | 50 µg/mL | 25 µg/mL | 25 µg/mL | 50 µg/mL | 12.5 µg/mL | 100 µg/mL | 50 µg/mL | 12.5 µg/mL | 50 µg/mL | 25 µg/mL | – | – | – | – | – | – | – | – | – | – |
| PRT1061 (KRDPCLRKYKDFCIHGECKYVKELRAPSCICHPGYHGERCH; listed as Homo sapiens) | 12.5 µg/mL | – | – | – | – | – | – | – | – | – | – | 25 µg/mL | 12.5 µg/mL | 12.5 µg/mL | 12.5 µg/mL | 12.5 µg/mL | 50 µg/mL | 25 µg/mL | 12.5 µg/mL | 12.5 µg/mL | MIC P. aeruginosa ([11]; 10 h cultivation at 37° C.): 12.5 µg/mL |
| PRT1472 (LEHPCASLCCGHGTCIDGIGSFSCDCRSGWEGRFCQ; listed as Homo sapiens) | 50 µg/mL | – | – | – | – | – | – | – | – | – | – | – | – | – | – | – | – | – | – | – | MIC against P. mirabilis ([2]; Proteus mirabilis, 10 h cultivation at 37° C.): 12.5 µg/mL; MIC against E. cloacae ([3]; Enterobacter cloacae, 10 h cultivation at 37° C.): 12.5 µg/mL; MIC against C. diversus ([4]; Citrobacter diversus, 10 h cultivation at 37° C.): 12.5 µg/mL; MIC against E. coli BL21 [5, 12]: 50 µg/mL; MIC against P. vulgaris ([6]; Proteus vulgaris, 10 h cultivation at 37° C.): 25 µg/mL; MIC against M. catarrhalis ([7]; Moraxella catarrhalis, 10 h cultivation at 37° C.): 25 µg/mL; MIC against S. marcescens ([8]; Serratia marcescens, 10 h cultivation at 37° C.): 50 µg/mL; MIC against K. pneumonia ([9]; Klebsiella pneumonia, 10 h cultivation at 37° C.): 25 µg/mL; MIC against A. hydrophila ([10]; Aeromonas hydrophila, 10 h cultivation at 37° C.): 25 µg/mL; MIC against P. aeruginosa ([11]; Pseudomonas aeruginosa, 10 h cultivation at 37° C.): 25 µg/mL |
| PRT1062 (LQGNCSRLGCQHHCVPTLDGPTCYCNSSFQLQADGKTCK; listed as Homo sapiens) | 25 µg/mL | – | – | – | – | – | – | – | – | – | – | 12.5 µg/mL | 25 µg/mL | 50 µg/mL | 50 µg/mL | 25 µg/mL | 25 µg/mL | 50 µg/mL | 12.5 µg/mL | 25 µg/mL | MIC P. aeruginosa ([11]; 10 h cultivation at 37° C.): 25 µg/mL |
